Patent publication US20080193976A1 (priority 2005, published 2008)

Tested on: CD4+T-cells
Assay type: cell-based, human

| Substance | epitope classification | responders [%] | positive control response |
| --- | --- | --- | --- |
| ARGRIRNGALLRVYVPRS [Peptide 75-76] | major (or significant) epitope | 22.62 |  |
| RLVALYLAARLSWNQ [Peptide 15] | minor epitopes | 14.29 |  |
| SQDLDAIWRGFYIAG [Peptide 65] | minor epitopes | 14.29 |  |
| tetanus toxoid [reference compound] |  |  | robust positive control responses |
